Measurements from US20230271950A1, “ANTIBACTERIAL PICOLINAMIDE COMPOUNDS” (University of Notre Dame Du Lac, priority 2020, published 2023).
Values after ≈ are worked out from the molar mass of the structure shown. Read-outs that look alike come from different tables or passages of the source.

Columns and labels:
S. aureus ATCC29213 = experiment: MIC against MSSA; format: cell-based, Staphylococcus aureus; details: Staphylococcus aureus; MSSA ATCC 29213; Table 10, unit inferred; read-out: Activity (MIC) against S. aureus
C. difficile = experiment: MIC by broth microdilution against C. difficile strains; format: cell-based, Clostridioides difficile; details: for MIC: Clostridioides difficile
MRSA (NRS70, NRS119) = experiment: MIC against MRSA strains; format: cell-based, Staphylococcus aureus; details: Staphylococcus aureus, NRS70 strain; Table 3 (SAR^2 and SAR^3); read-out: MIC MRSA
E. faecium NCTC7171 = experiment: MIC against E. faecium; format: cell-based, Enterococcus faecium; details: Enterococcus faecium, NCTC7171; E. faecium NCTC 7171; Table 10, unit inferred; read-out: Activity (MIC) against E. faecium
HeLa cells = experiment: XTT cytotoxicity assay with HeLa cells; format: cell-based; details: Homo sapiens, Table 6
Method: XTT assay. Cytotoxicity assays were performed in triplicate against HeLa cells (ATCC CCL-2). The IC50 values were calculated by nonlinear regression with GraphPad Prism 5 (San Diego, Calif.).
XTT assay. XTT assays were performed with HeLa cells (ATCC CCL-2) in triplicate, as previously described (Lancet 2008, 371, 1486). IC50 values were determined by nonlinear regression using GraphPad Prism 5 (San Diego, Calif.).

[1] = Pharmacokinetics study in mice (plasma and feces levels); format: in vivo; details: for Conc. feces/MIC: dose 20 mg · kg^−1; for concentration at 8 h: female, CD-1, mouse, single oral gavage, dose 20 mg · kg^−1, feces collected after 8 h, read-out: Drug concentration in fecal samples (mg kg^−1 feces)
Method: Pharmacokinetics (PK) study. Mice (n=2 per time point) were given a single 100 μL solution of 5 mg/mL of compound 1 (equivalent to 20 mg/kg). Terminal blood was collected in heparinized syringes by cardiac puncture at 30 min, 1 h, 2 h, 4 h, and 8 h. The two mice at the 8-h time point were place in metabolism cages for collection of feces. Compound 1 was dissolved in 5% DMSO/95% water with 96 mg/mL of sodium bicarbonate. Blood was centrifuged at 1,000 g for 20 min at 4° C. and plasma was separated and stored at −80° C. until analysis. A 45-μL aliquot of plasma was mixed with 5 μL of H2O:ACN (1:1) and was quenched with 100 μL of acetonitrile containing 20 μM of internal standard (compound 10). The sample was centrifuged at 21,000 g for 15 min at 4° C. to precipitate the proteins, and the resulting supernatant was analyzed by UPLC-TQD detector using multiple-reaction monitoring (MRM). Calibration curves for compound 1 were prepared from 0 to 102.4 μM using a control mouse plasma (50 μL). Peak area ratios relative to internal standard and linear regression was used from which the concentrations in plasma samples from the PK study were determined.
An average of 250 mg of feces were collected at 8 h from two mice, and subsequently homogenized with 6 times the feces volume (1,500 μL of H2O:ACN 1:1) using a Bullet Blender (Next Advance, Inc., Troy, N.Y.). The homogenate was centrifuged at 21,000 g for 5 min. The fecal supernatant (72 μL) was mixed with 8 μL of a solution of H2O:ACN (1:1) and 40 μL of 50 μM of the internal standard in ACN with 0.5% formic acid. A calibration curve was prepared from 0 μM to 102.4 μM in control mouse feces. Plasma and feces were analyzed on a Waters TQD tandem quadrupole detector (Waters Corporation, Milford, Mass.) using a YMC-Triart C18 100 mm×2.0 mm column (3μ, YMC Co. Ltd, Kyoto, Japan). The chromatographic conditions consisted of elution with 30% H2O/70% ACN containing 0.10% formic acid for 5 min at a flow rate 0.5 mL/min. Mass Spectrometry acquisition was performed in the positive electrospray ionization mode with MRM. The capillary, cone, extractor and RF lens voltages were set at 2.8 kV, 40 V, 1 V and 0.1 V, respectively. The desolvation and cone gas (nitrogen) flow rates were 650 L/h and 50 L/h, respectively. The source temperature was set at 150° C. The desolvation temperature was 350° C. The MRM transitions used were 459.4→254.0 for compound 1, and 294.8→133.5 for the internal standard.
Animals. Female C57BL/6 mice weighing 18-20 g and 6-8 weeks of age were used for the efficacy study (Jackson, Bar Harbor, Me.). Female CD-1 mice (24-31 g and 7-8 weeks of age) were used for the PK study. They were housed in groups of five mice in sterile polycarbonate shoeboxes with bedding consisting of ¼-inch corncob (The Andersons Ind., Maumee, Ohio) and Alpha-Dri (Shepherd Specialty Papers, Inc., Richland, Mich.). Mice were maintained on a 12-h light/dark cycle at 72° F. and were given Teklad 2918 irradiated extruded rodent diet and water ad libitum. All procedures were performed in accordance with and approved by the University of Notre Dame Institutional Animal Care and Use Committee.
Pharmacokinetics (PK) Studies. Compounds 4, 87, 107, and 108 were dissolved in 10% DMSO, 25% propylene glycol, 15% Tween 80 and 50% water at concentrations of 5 mg/mL or 10 mg/mL. Compound 116 was dissolved in 5% DMSO, 95% water with 96 mg/mL of sodium bicarbonate. Mice (n=2 per time point) were given a single 100 μL oral gavage of the test compound (equivalent to either 10 mg/kg and/or 20 mg/kg), and terminal blood was collected in heparinized syringes by cardiac puncture at 30 min, 1 h, 2 h, 4 h, and 8 h. An average of 250 mg of feces were collected after 8 h from two mice housed in metabolism cages in each group for further analysis. Blood was centrifuged at 1000 g for 2 min at 4° C. to obtain plasma. Plasma and fecal samples were stored at −80° C. until analysis. […]

C. difficile ATCC43255 = experiment: Macromolecular synthesis assay (radioactive precursor incorporation); format: cell-based, Clostridioides difficile; details: 0.5×MIC, N-acetyl-d-[6-^3H]glucosamine incorporation, 120 min
Method: FIG. 2. Mechanism of action of compound 1. (A) Macromolecular biosynthesis assays: Compound 1 was incubated with C. difficile ATCC43255 at 0.5×MIC. […] The incubation time was 60 min for DNA, 120 min for peptidoglycan synthesis and RNA, and 180 min for protein synthesis. (B-G) Imaging of C. difficile […] vegetative cells (logarithmic growth) by scanning electron microscopy.
The mechanism of action of 1 was investigated using macromolecular synthesis assays. These assays measure the incorporation of radioactive precursors ([2,8-^3H]-adenine, [5,6-^3H]-uridine, 1-[3,4,5-^3H(N)]-leucine, and N-acetyl-d-[6-^3H]glucosamine) respectively into DNA, RNA, protein, and peptidoglycan. […] This analysis visualizes the cell wall as the outermost layer of the cell envelope of Gram-positive bacteria such as C. difficile.
Macromolecular synthesis assay. The macromolecular synthesis assay was performed by established methods. […] The radiolabeled precursors were purchased from Perkin Elmer (Waltham, Mass., USA).

[2] = ATCC43255, ATCC 43255, ribotype 087, Table 3 (SAR^2 and SAR^3), read-out: MIC C. difficile
[3] = MIC MRSA/MIC C. difficile, Table 3
[4] = C. difficile, Table 8, read-out: MIC

Row | SMILES | MIC (S. aureus ATCC29213) [µg/mL] | MIC (C. difficile; [2]) [µg/mL] | MIC (MRSA (NRS70, NRS119)) [µg/mL] | MIC (E. faecium NCTC7171) [µg/mL] | MIC (C. difficile; ATCC43255, C. difficile ATCC 43255, read-out: MIC against C. difficile) [µg/mL] | Selectivity (C. difficile; [3]) | IC50 (HeLa cells) [µg/mL] | MIC (C. difficile; [4]) [µg/mL] | Selectivity (C. difficile; Table 8) | Conc. feces/MIC [1] | concentration at 8 h [1] [ng/g] | MIC (C. difficile; ATCC43255, C. difficile ATCC43255, FIG. 2 legend, read-out: MIC of positive controls) [µg/mL] | inhibition of cell-wall peptidoglycan biosynthesis (C. difficile ATCC43255) [%]
1 | O=C(Nc1ncco1)c1cc(-c2ccc(F)cc2)ccn1 [Compound 89, 4-(4-Fluorophenyl)-N-(oxazol-2-yl)picolinamide] | ≥ 128 | 1 (≈ 3.53 µM) | 64 (≈ 226 µM) | ≥ 128 |  | 64 | 170 ± 2.5 (≈ 601 µM) |  |  |  |  |  | 
2 | O=C(Nc1ncco1)c1cc(-c2cccc(F)c2)ccn1 [Compound 93, 4-(3-Fluorophenyl)-N-(oxazol-2-yl)picolinamide] | ≥ 128 | 0.5 (≈ 1.77 µM) | 64 (≈ 226 µM) | ≥ 128 |  | 128 | > 64 |  |  |  |  |  | 
3 | O=C(Nc1ncco1)c1cc(-c2cc(F)cc(F)c2)ccn1 [Compound 94, 4-(3,5-Difluorophenyl)-N-(oxazol-2-yl)picolinamide] | ≥ 128 | 1 (≈ 3.32 µM) | 64 (≈ 212 µM) | ≥ 128 |  | 64 | 40.1 ± 1.6 (≈ 133 µM) |  |  |  |  |  | 
4 | O=C(Nc1ncco1)c1cc(-c2ccc(C(F)(F)F)cc2)ccn1 [Compound 97, N-(Oxazol-2-yl)-4-(4-(trifluoromethyl)phenyl)picolinamide] | ≥ 128 | 0.25 (≈ 0.75 µM) | 128 (≈ 384 µM) | ≥ 128 |  | 512 | 135 ± 8.6 (≈ 405 µM) |  |  |  |  |  | 
5 | O=C(Nc1ncco1)c1cc(-c2cccc(C(F)(F)F)c2)ccn1 [Compound 98, N-(Oxazol-2-yl)-4-(3-(trifluoromethyl)phenyl)picolinamide] | ≥ 128 | 0.5 (≈ 1.5 µM) | 64 (≈ 192 µM) | ≥ 128 |  | 128 | 115 ± 2.2 (≈ 344 µM) |  |  |  |  |  | 
6 | O=C(Nc1ncco1)c1cc(Oc2cccc(F)c2)ccn1 [Compound 107, 4-(3-Fluorophenoxy)-N-(oxazol-2-yl)picolinamide] | 64 (≈ 214 µM) |  |  | 64 (≈ 214 µM) |  |  | 88 ± 2.3 (≈ 294 µM) | 1 (≈ 3.34 µM) | >256 | 2.4 | 2400 |  | 
7 | COC(=O)c1ccc2oc(NC(=O)c3cc(Oc4ccc(F)c(F)c4)ccn3)nc2c1 [Compound 114, Methyl 2-(4-(3,4-difluorophenoxy)picolinamido)benzo[d]oxazole-5-carboxylate] | 128 (≈ 301 µM) |  |  | ≥ 128 |  |  | 53.3 ± 3.6 (≈ 125 µM) |  |  |  |  |  | 
8 | Cc1onc(-c2ccccc2)c1C(=O)N[C@@H]1C(=O)N2[C@@H]1SC(C)(C)[C@@H]2C(=O)O [oxacillin, reference compound] |  |  |  |  |  |  |  |  |  |  |  | 8 | 51±1

Now from value to molecule, other results behind:

Row | MIC (S. aureus ATCC29213) [µg/mL] | MIC (C. difficile; [2]) [µg/mL] | MIC (MRSA (NRS70, NRS119)) [µg/mL] | MIC (E. faecium NCTC7171) [µg/mL] | MIC (C. difficile; ATCC43255, C. difficile ATCC 43255, read-out: MIC against C. difficile) [µg/mL] | SMILES | Selectivity (C. difficile; [3]) | IC50 (HeLa cells) [µg/mL] | MIC (C. difficile; [4]) [µg/mL] | Selectivity (C. difficile; Table 8) | Conc. feces/MIC [1] | concentration at 8 h [1] [ng/g] | MIC (C. difficile; ATCC43255, C. difficile ATCC43255, FIG. 2 legend, read-out: MIC of positive controls) [µg/mL] | inhibition of cell-wall peptidoglycan biosynthesis (C. difficile ATCC43255) [%]
9 | ≥ 128 | 0.5 (≈ 1.66 µM) | 128 (≈ 425 µM) | ≥ 128 |  | O=C(Nc1ncco1)c1cc(-c2ccc(F)c(F)c2)ccn1 [Compound 90, 4-(3,4-Difluorophenyl)-N-(oxazol-2-yl)picolinamide] | 256 | > 64 |  |  |  |  |  | 
10 | ≥ 128 | 0.25 (≈ 0.787 µM) | 128 (≈ 403 µM) | ≥ 128 |  | O=C(Nc1ncco1)c1cc(-c2ccc(Cl)c(F)c2)ccn1 [Compound 92, 4-(4-Chloro-3-fluorophenyl)-N-(oxazol-2-yl)picolinamide] | 512 | > 256 |  |  |  |  |  | 
11 | 128 |  |  | 128 | 0.5 | O=C([O-])c1ccc2oc(NC(=O)c3cc(Oc4ccc(F)c(F)c4)ccn3)nc2c1.[Na+] [Compound 116, Sodium 2-(4-(3,4-difluorophenoxy)picolinamido)benzo[d]oxazole-5-carboxylate] |  | > 128 | 0.5 | 128 | 7.4 | 3700 |  | 
12 | 8 (≈ 18 µM) |  |  | 64 (≈ 144 µM) |  | O=C(O)c1ccc2nc(NC(=O)c3cc(-c4ccc(OC(F)(F)F)cc4)ccn3)oc2c1 [Compound 118, 2-(4-(4-(Trifluoromethoxy)phenyl)picolinamido)benzo[d]oxazole-6-carboxylic acid] |  | 79.9 ± 6.3 (≈ 180 µM) |  |  |  |  |  | 
